Test results reported in patent EP0908457B1, “3-(1,2-benzisothiazol- and isoxazol-5-Y1)-2,4(1H,3H)-pyrimidinedione or thione and 3-(1,2-benzisothiazol- and isoxazol-5-y1)-4(3H)-pyrimidinone or thione herbicidal agents” (BASF AKTIENGESELLSCHAFT, priority 1997, dated 1999).

Key:
[1] = tested on: Echinochloa oryzoides (Ard.) Fritsch.; assay: Preemergence weed control under flooded paddy conditions, ECHORC (Watergrass (Calif.)); assay type: in vivo; details: flooded paddy; for ECHORC: herbicidal effect rating 0-9, three to four weeks after treatment; for herbicidal effect rating, ECHORC: meaning of each grade not given here
Cyperus iria = assay: Preemergence weed control under flooded paddy conditions, CYPIR (Rice Flatsedge); assay type: in vivo; details: flooded paddy; for CYPIR: herbicidal effect rating 0-9, three to four weeks after treatment; for herbicidal effect rating, CYPIR: meaning of each grade not given here
[2] = tested on: Cyperus serotinus, Rottb.; assay: Preemergence weed control under flooded paddy conditions, CYPSE (Flatsedge); assay type: in vivo; details: for CYPSE: herbicidal effect rating 0-9, three to four weeks after treatment; for herbicidal effect rating, CYPSE: meaning of each grade not given here
[3] = tested on: Monochoria vaginalis, Presl.; assay: Preemergence weed control under flooded paddy conditions, MOOVA (Monochoria); assay type: in vivo; details: flooded paddy; for MOOVA: herbicidal effect rating 0-9, three to four weeks after treatment; for herbicidal effect rating, MOOVA: meaning of each grade not given here
Sagittaria pygmaea, L. = assay: Preemergence weed control under flooded paddy conditions, SAGPY (Arrowhead (Pygmaea)); assay type: in vivo; details: flooded paddy; for SAGPY: herbicidal effect rating 0-9, three to four weeks after treatment; for herbicidal effect rating, SAGPY: meaning of each grade not given here
[4] = tested on: Oryza sativa, (L.) Tebonnet; assay: Rice tolerance to post-transplant applications under flooded paddy conditions (Example 187), ORYSAT (Rice, Tebonnet); details: for ORYSAT: herbicidal effect rating 0-9, three to four weeks after treatment; for herbicidal effect rating ORYSAT: rated 3-4 weeks after treatment; for herbicidal effect rating, ORYSAT (rice tolerance): rated three to four weeks after treatment; for herbicidal effect rating ORYSAT: meaning of each grade not given here
[5] = 0.0320 kg/ha, preemergence weeds
[6] = 0.0620 kg/ha, preemergence weeds
[7] = 0.1250 kg/ha, preemergence weeds
[8] = 0.2500 kg/ha, preemergence weeds
[9] = Rate 0.0320 kg/ha, preemergence, rated 3-4 weeks after treatment
[10] = Rate 0.0620 kg/ha, preemergence, rated 3-4 weeks after treatment
[11] = Rate 0.1250 kg/ha, preemergence, rated 3-4 weeks after treatment
[12] = Rate 0.2500 kg/ha, preemergence, rated 3-4 weeks after treatment
[13] = 0.0315 kg/ha, preemergence weeds, rated three to four weeks after treatment
[14] = 0.0630 kg/ha, preemergence weeds, rated three to four weeks after treatment

Work on CCOCOCc1nsc2ccc(-n3c(=O)cc(C(F)(F)F)n(C)c3=O)cc12 [Example 455, 2,4(1H,3H)-Pyrimidinedione, 3-(3-[(ethoxymethoxy)methyl]-1,2-benzisothiazol-5-yl}-1-methyl-6-(trifluoromethyl)-] yielded an ECHORC [1, 5] of 9.0, an ECHORC [1, 6] of 9.0 and an ECHORC [1, 7] of 9.0. It also gave an ECHORC [1, 8] of 9.0, a CYPIR (Cyperus iria; [5]) of 6.0 and a CYPIR (Cyperus iria; [6]) of 7.0. It also gave a CYPIR (Cyperus iria; [7]) of 9.0, a CYPIR (Cyperus iria; [8]) of 9.0 and a CYPSE [2, 5] of 2.0. For the same compound, the CYPSE [2, 6] was 6.0, the CYPSE [2, 7] was 8.0 and the CYPSE [2, 8] was 9.0. It also gave an MOOVA [3, 5] of 6.0, an MOOVA [3, 6] of 7.0 and an MOOVA [3, 7] of 9.0. It also gave an MOOVA [3, 8] of 9.0, an SAGPY (Sagittaria pygmaea, L.; [5]) of 4.0 and an SAGPY (Sagittaria pygmaea, L.; [6]) of 6.0. It also gave an SAGPY (Sagittaria pygmaea, L.; [7]) of 7.0, an SAGPY (Sagittaria pygmaea, L.; [8]) of 9.0 and an ORYSAT ([4]; 0.0320 kg/ha) of 6.0. It also gave an ORYSAT ([4]; 0.0620 kg/ha) of 8.0, an ORYSAT ([4]; 0.1250 kg/ha) of 9.0 and an ORYSAT ([4]; 0.2500 kg/ha) of 9.0.
With COCC(C)OC(=O)C(C)(C)Oc1ccc(C)cc1-c1nsc2ccc(-n3c(=O)cc(C(F)(F)F)n(C)c3=O)cc12 (stereo not shown) [Example 532, Propionic acid, 2-{{2-{5-[3,6-dihydro-3-methyl-2,6-dioxo-4-(trifluoromethyl)-1(2H)-pyrimidinyl]-1,2-benzisothiazol-3-yl}-p-tolyl}oxy}-2-methyl-, 2-methoxy-1-methylethyl ester] the “herbicidal effect rating, ECHORC” value [1, 9] was 9.0, the “herbicidal effect rating, ECHORC” value [1, 10] was 9.0 and the “herbicidal effect rating, ECHORC” value [1, 11] was 9.0. For the same compound, the “herbicidal effect rating, ECHORC” value [1, 12] was 9.0, the “herbicidal effect rating, CYPIR” value (Cyperus iria; [9]) was 9.0 and the “herbicidal effect rating, CYPIR” value (Cyperus iria; [10]) was 9.0. The “herbicidal effect rating, CYPIR” value (Cyperus iria; [11]) was 9.0, the “herbicidal effect rating, CYPIR” value (Cyperus iria; [12]) was 9.0 and the “herbicidal effect rating, CYPSE” value [2, 9] was 0.0. The “herbicidal effect rating, CYPSE” value [2, 10] was 0.0, the “herbicidal effect rating, CYPSE” value [2, 11] was 0.0 and the “herbicidal effect rating, CYPSE” value [2, 12] was 0.0. For the same compound, the “herbicidal effect rating, MOOVA” value [3, 9] was 9.0, the “herbicidal effect rating, MOOVA” value [3, 10] was 9.0 and the “herbicidal effect rating, MOOVA” value [3, 11] was 9.0. The “herbicidal effect rating, MOOVA” value [3, 12] was 9.0, the “herbicidal effect rating, SAGPY” value (Sagittaria pygmaea, L.; [9]) was 0.0 and the “herbicidal effect rating, SAGPY” value (Sagittaria pygmaea, L.; [10]) was 0.0. The “herbicidal effect rating, SAGPY” value (Sagittaria pygmaea, L.; [11]) was 0.0, the “herbicidal effect rating, SAGPY” value (Sagittaria pygmaea, L.; [12]) was 9.0 and the “herbicidal effect rating ORYSAT” value ([4]; Rate 0.0320 kg/ha) was 0.0. For the same compound, the “herbicidal effect rating ORYSAT” value ([4]; Rate 0.0620 kg/ha) was 0.0, the “herbicidal effect rating ORYSAT” value ([4]; Rate 0.1250 kg/ha) was 0.0 and the “herbicidal effect rating ORYSAT” value ([4]; Rate 0.2500 kg/ha) was 2.0.
With Cc1ccc(OCC(=O)OC2C=CCCC2)c(-c2nsc3ccc(-n4c(=O)cc(C(F)(F)F)n(C)c4=O)cc23)c1 (stereo not shown) [Example 185, 2-Cyclohexen-1-yl {{2-{5-[3,6-dihydro-3-methyl-2,6-dioxo-4-(trifluoromethyl)-1(2H)-pyrimidinyl]-1,2-benzisothiazol-3-yl}-p-tolyl}oxy}acetate] the “herbicidal effect rating, ECHORC” value [1, 13] was 0.0, the “herbicidal effect rating, ECHORC” value [1, 14] was 0.0 and the “herbicidal effect rating, CYPIR” value (Cyperus iria; [13]) was 0.0. For the same compound, the “herbicidal effect rating, CYPIR” value (Cyperus iria; [14]) was 0.0, the “herbicidal effect rating, CYPSE” value [2, 13] was 0.0 and the “herbicidal effect rating, CYPSE” value [2, 14] was 0.0. For the same compound, the “herbicidal effect rating, MOOVA” value [3, 13] was 9.0, the “herbicidal effect rating, MOOVA” value [3, 14] was 9.0 and the “herbicidal effect rating, SAGPY” value (Sagittaria pygmaea, L.; [13]) was 0.0. For the same compound, the “herbicidal effect rating, SAGPY” value (Sagittaria pygmaea, L.; [14]) was 0.0, the “herbicidal effect rating, ORYSAT (rice tolerance)” value ([4]; 0.0315 kg/ha) was 0.0 and the “herbicidal effect rating, ORYSAT (rice tolerance)” value ([4]; 0.0630 kg/ha) was 0.0.
In the case of CN(/N=C/c1nsc2ccc(-n3c(=O)cc(C(F)(F)F)n(C)c3=O)cc12)c1ccccc1 [Example 412, 1,2-Benzisothiazole-3-carboxaldehyde, 5-[3,6-dihydro-3-methyl-2,6-dioxo-4-(trifluoromethyl)-1(2H)-pyrimidinyl]-, 3-(methylphenylhydrazone), (E)-], the ECHORC [1, 5] is reported as 0.0, the ECHORC [1, 6] is reported as 0.0 and the ECHORC [1, 7] is reported as 0.0. The CYPIR (Cyperus iria; [5]) was 0.0, the CYPIR (Cyperus iria; [6]) was 0.0 and the CYPIR (Cyperus iria; [7]) was 4.0. It also gave a CYPIR (Cyperus iria; [8]) of 8.0, a CYPSE [2, 5] of 0.0 and a CYPSE [2, 6] of 0.0. For the same compound, the CYPSE [2, 7] was 4.0, the CYPSE [2, 8] was 6.0 and the MOOVA [3, 5] was 7.0. It also gave an MOOVA [3, 6] of 9.0, an MOOVA [3, 7] of 9.0 and an MOOVA [3, 8] of 9.0. The ORYSAT ([4]; 0.0320 kg/ha) was 0.0, the ORYSAT ([4]; 0.0620 kg/ha) was 0.0 and the ORYSAT ([4]; 0.1250 kg/ha) was 2.0. The ORYSAT ([4]; 0.2500 kg/ha) was 4.0.
